Test results taken from PubChem BioAssay AID2060896 (Molecular Pharmacology Branch, DTP, NCI, 2025).
pIC50: −log10 of the molar value.

Tested on: 941728-121-R-J1-PDC complex spheroid viability
Assay: Anticancer human tumor 941728-121-R-J1-PDC patient-derived lung adenocarcinoma cell line growth inhibition [RAS]
Conditions: for pIC50: curve of first compound; for viability, T/C: stronger effect = lower value
Outline: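 Tumour cells grown as complex spheroids with HUVEC endothelial cells and mesenchymal stem cells, treated with RAS pathway inhibitor combinations. Each agent spans half-log steps from near clinical Cmax, or 10 microM where Cmax is unknown.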
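Further: spheroids exposed to compounds for 7 days before readout.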
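Wherever viability, T/C is given: 100% = DMSO vehicle control viability.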

C=CC(=O)N1CCN(c2nc(OCC3CCCN3C)nc3c(F)c(-c4nc(N)cc(C)c4C(F)(F)F)c(Cl)cc23)C(C)C1 (centres undefined) + CCn1c(-c2cccnc2C(C)OC)c2c3cc(ccc31)N1CCOC(CC(NC(=O)C(C(C)C)N(C)C(=O)C3(F)CCN(C(=O)C#CC(C)(C)N(C)C)CC3)C(=O)N3CCCC(N3)C(=O)OCC(C)(C)C2)C1 showed a pIC50 (second compound 0.000949 µM) of over 8.50, a pIC50 (second compound 0.003 µM) of over 8.50 and a pIC50 (second compound 0.00949 µM) of over 8.50. For the same molecule, the pIC50 (second compound 0.03 µM) was over 8.50, the pIC50 (second compound 0.0949 µM) was over 8.50 and the pIC50 (second compound 0.3 µM) was over 8.50. It also gave a viability, T/C (second compound 0.000949 µM, first compound 0.00316 µM) of 22.3%, a viability, T/C (second compound 0.000949 µM, first compound 0.01 µM) of 23.4% and a viability, T/C (second compound 0.000949 µM, first compound 0.0316 µM) of 20.6%. For the same molecule, the viability, T/C (second compound 0.000949 µM, first compound 0.1 µM) was 22.8%, the viability, T/C (second compound 0.000949 µM, first compound 0.316 µM) was 22.8% and the viability, T/C (second compound 0.000949 µM, first compound 1 µM) was 19.9%. The viability, T/C (second compound 0.003 µM, first compound 0.00316 µM) was 26.6%, the viability, T/C (second compound 0.003 µM, first compound 0.01 µM) was 22.7% and the viability, T/C (second compound 0.003 µM, first compound 0.0316 µM) was 21.4%. It also gave a viability, T/C (second compound 0.003 µM, first compound 0.1 µM) of 24.5%, a viability, T/C (second compound 0.003 µM, first compound 0.316 µM) of 23.2% and a viability, T/C (second compound 0.003 µM, first compound 1 µM) of 19%. It also gave a viability, T/C (second compound 0.00949 µM, first compound 0.00316 µM) of 24.7%, a viability, T/C (second compound 0.00949 µM, first compound 0.01 µM) of 21.1% and a viability, T/C (second compound 0.00949 µM, first compound 0.0316 µM) of 22.7%. For the same molecule, the viability, T/C (second compound 0.00949 µM, first compound 0.1 µM) was 23.4%, the viability, T/C (second compound 0.00949 µM, first compound 0.316 µM) was 20.6% and the viability, T/C (second compound 0.00949 µM, first compound 1 µM) was 20.5%. For the same molecule, the viability, T/C (second compound 0.03 µM, first compound 0.00316 µM) was 22.4%, the viability, T/C (second compound 0.03 µM, first compound 0.01 µM) was 22.5% and the viability, T/C (second compound 0.03 µM, first compound 0.0316 µM) was 25.3%. For the same molecule, the viability, T/C (second compound 0.03 µM, first compound 0.1 µM) was 24.8%, the viability, T/C (second compound 0.03 µM, first compound 0.316 µM) was 18.7% and the viability, T/C (second compound 0.03 µM, first compound 1 µM) was 23.6%. It also gave a viability, T/C (second compound 0.0949 µM, first compound 0.00316 µM) of 22.7%, a viability, T/C (second compound 0.0949 µM, first compound 0.01 µM) of 23.9% and a viability, T/C (second compound 0.0949 µM, first compound 0.0316 µM) of 23.4%. For the same molecule, the viability, T/C (second compound 0.0949 µM, first compound 0.1 µM) was 23.4%, the viability, T/C (second compound 0.0949 µM, first compound 0.316 µM) was 22.6% and the viability, T/C (second compound 0.0949 µM, first compound 1 µM) was 25.4%. It also gave a viability, T/C (second compound 0.3 µM, first compound 0.00316 µM) of 22.7%, a viability, T/C (second compound 0.3 µM, first compound 0.01 µM) of 25% and a viability, T/C (second compound 0.3 µM, first compound 0.0316 µM) of 22.4%. For the same molecule, the viability, T/C (second compound 0.3 µM, first compound 0.1 µM) was 21.4%, the viability, T/C (second compound 0.3 µM, first compound 0.316 µM) was 21% and the viability, T/C (second compound 0.3 µM, first compound 1 µM) was 28%.

With CC1(C)CCC(Nc2ncc(C(F)(F)F)c(-c3c[nH]c4c(P(C)(C)=O)c(C#N)ccc34)n2)CN1 (centres undefined) + CCn1c(-c2cccnc2C(C)OC)c2c3cc(ccc31)N1CCOC(CC(NC(=O)C(C(C)C)N(C)C(=O)C3(F)CCN(C(=O)C#CC(C)(C)N(C)C)CC3)C(=O)N3CCCC(N3)C(=O)OCC(C)(C)C2)C1 the pIC50 (second compound 0.000949 µM) was over 9.02, the pIC50 (second compound 0.003 µM) was over 9.02 and the pIC50 (second compound 0.00949 µM) was over 9.02. The pIC50 (second compound 0.03 µM) was over 9.02, the pIC50 (second compound 0.0949 µM) was over 9.02 and the pIC50 (second compound 0.3 µM) was over 9.02. It also gave a viability, T/C (second compound 0.000949 µM, first compound 0.000949 µM) of 21%, a viability, T/C (second compound 0.000949 µM, first compound 0.003 µM) of 20.7% and a viability, T/C (second compound 0.000949 µM, first compound 0.00949 µM) of 16.3%. For the same molecule, the viability, T/C (second compound 0.000949 µM, first compound 0.03 µM) was 23.5%, the viability, T/C (second compound 0.000949 µM, first compound 0.0949 µM) was 24.3% and the viability, T/C (second compound 0.000949 µM, first compound 0.3 µM) was 15.7%. It also gave a viability, T/C (second compound 0.003 µM, first compound 0.000949 µM) of 25.2%, a viability, T/C (second compound 0.003 µM, first compound 0.003 µM) of 19.5% and a viability, T/C (second compound 0.003 µM, first compound 0.00949 µM) of 18.2%. The viability, T/C (second compound 0.003 µM, first compound 0.03 µM) was 22.9%, the viability, T/C (second compound 0.003 µM, first compound 0.0949 µM) was 22.2% and the viability, T/C (second compound 0.003 µM, first compound 0.3 µM) was 16.6%. For the same molecule, the viability, T/C (second compound 0.00949 µM, first compound 0.000949 µM) was 21.4%, the viability, T/C (second compound 0.00949 µM, first compound 0.003 µM) was 20.2% and the viability, T/C (second compound 0.00949 µM, first compound 0.00949 µM) was 21.2%. It also gave a viability, T/C (second compound 0.00949 µM, first compound 0.03 µM) of 19.6%, a viability, T/C (second compound 0.00949 µM, first compound 0.0949 µM) of 21.2% and a viability, T/C (second compound 0.00949 µM, first compound 0.3 µM) of 21.9%. The viability, T/C (second compound 0.03 µM, first compound 0.000949 µM) was 20.4%, the viability, T/C (second compound 0.03 µM, first compound 0.003 µM) was 17% and the viability, T/C (second compound 0.03 µM, first compound 0.00949 µM) was 22.8%. The viability, T/C (second compound 0.03 µM, first compound 0.03 µM) was 21.7%, the viability, T/C (second compound 0.03 µM, first compound 0.0949 µM) was 19% and the viability, T/C (second compound 0.03 µM, first compound 0.3 µM) was 21.6%. For the same molecule, the viability, T/C (second compound 0.0949 µM, first compound 0.000949 µM) was 19.5%, the viability, T/C (second compound 0.0949 µM, first compound 0.003 µM) was 20.3% and the viability, T/C (second compound 0.0949 µM, first compound 0.00949 µM) was 21%. The viability, T/C (second compound 0.0949 µM, first compound 0.03 µM) was 23.4%, the viability, T/C (second compound 0.0949 µM, first compound 0.0949 µM) was 19% and the viability, T/C (second compound 0.0949 µM, first compound 0.3 µM) was 23.7%. The viability, T/C (second compound 0.3 µM, first compound 0.000949 µM) was 20.7%, the viability, T/C (second compound 0.3 µM, first compound 0.003 µM) was 19.9% and the viability, T/C (second compound 0.3 µM, first compound 0.00949 µM) was 25.6%. It also gave a viability, T/C (second compound 0.3 µM, first compound 0.03 µM) of 20.9%, a viability, T/C (second compound 0.3 µM, first compound 0.0949 µM) of 21.4% and a viability, T/C (second compound 0.3 µM, first compound 0.3 µM) of 25.6%.
